Where two headings read alike, the source gives them in different places. Marks after values point to notes of the source that are not given here.
Assay: Chemical stability of liquid composition on storage
Assay type: physicochemical
Experimental: The chemical stability of a disclosed liquid composition stored at 6° C. or 22° C. was evaluated at 2 months and three months. The microbial stability and shelf life was also evaluated. A liquid composition having a pH of about 3.7 was subjected to high pressure processing at 6000 bar for two cycles of 5 minutes.

[1] = stored at 6° C. or 22° C., adjusted for slightly lower oil volume in 3 months preparation (55 ml vs 60 ml)

| Compound | amount in liquid composition at 2 Months (chemical stability) [mg/60 mL] | amount in liquid composition at 3 Months (chemical stability) | amount in liquid composition at 2 Months (chemical stability) (stored at 6° C. or 22° C.) | amount in liquid composition at 3 Months (chemical stability) (stored at 6° C. or 22° C.) [mg/60 mL] | amount in liquid composition at 3 Months (chemical stability) [1] |
| --- | --- | --- | --- | --- | --- |
| [Mg+2] [Magnesium] | 15 | 27.8 mg/60 mL | – | – | – |
| N[C@@H](Cc1c[nH]c2ccccc12)C(=O)O [L-Tryptophan] | – | – | 420 mg/60 mL | 426 | – |
| [Na] [Sodium] | – | – | 1.23 mg/60 mL | 0.6 | – |
| CC/C=C\C/C=C\C/C=C\CCCCCCCC(=O)O [alpha linoleic acid] | 1026 | 1025* mg/60 mL | – | – | – |
| O=C1O[C@H]([C@@H](O)CO)C(O)=C1O [Vitamin C] | – | – | 326 mg/60 mL | 245 | – |
| NCC(=O)O [Glycine] | – | – | 3319 mg/60 mL | 3303 | – |
| [Zn] [Zinc] | – | – | 6 mg/60 mL | 5.7 | – |
| CC/C=C\C/C=C\C/C=C\C/C=C\C/C=C\CCCC(=O)O [eicosapentaenoic acid] | – | – | 319 mg/60 mL | – | 297* mg/60 mL |
| docosapenataenoic acid | – | – | 632 mg/60 mL | – | 587* mg/60 mL |
| Medium chain triglycerides | 2209 | 2407* mg/60 mL | – | – | – |
| Vitamin D | – | – | 25 mcg/60 mL | – | 26* mcg/60 mL |
| Vitamin E | – | – | – | 2.2 | – |
